The values below come from US20250282770A1, “BIOLUMINESCENT PROBES TO TRACK STEM CELLS IN VIVO” (THE BOARD OF TRUSTEES OF THE UNIVERSITY OF ILLINOIS, priority 2024, published 2025).

Experiment [1] concerns intracellular levels of NO. The experiment is described as follows: Intracellular NO levels in 4T1-Luc cells with BL660NO probe. The experiment is classed as cell-based, murine. The following applies: 30 minutes. How it is done:
FIG. 14A-D. a) 4T1-Luc cells administered BL660NO (NO-responsive bioluminescent probe; 39 μM) after incubation with DEA-NONOate (50 μM) for 30 minutes. b) Quantified data from a. c) 4T1-Luc cells administered BL660NO (20 μM) after incubation with L-NMMA (1 mM) for 30 minutes. d) Quantified data from c. Statistical analysis was performed using two-tailed Student's t-test with Welch's correction (α=0.05), *ρ<0.05.

In experiment [2] the target is T1, ALDH1A1 (Mus musculus, UniProt P24549).
T1 sequence (P24549 1-501): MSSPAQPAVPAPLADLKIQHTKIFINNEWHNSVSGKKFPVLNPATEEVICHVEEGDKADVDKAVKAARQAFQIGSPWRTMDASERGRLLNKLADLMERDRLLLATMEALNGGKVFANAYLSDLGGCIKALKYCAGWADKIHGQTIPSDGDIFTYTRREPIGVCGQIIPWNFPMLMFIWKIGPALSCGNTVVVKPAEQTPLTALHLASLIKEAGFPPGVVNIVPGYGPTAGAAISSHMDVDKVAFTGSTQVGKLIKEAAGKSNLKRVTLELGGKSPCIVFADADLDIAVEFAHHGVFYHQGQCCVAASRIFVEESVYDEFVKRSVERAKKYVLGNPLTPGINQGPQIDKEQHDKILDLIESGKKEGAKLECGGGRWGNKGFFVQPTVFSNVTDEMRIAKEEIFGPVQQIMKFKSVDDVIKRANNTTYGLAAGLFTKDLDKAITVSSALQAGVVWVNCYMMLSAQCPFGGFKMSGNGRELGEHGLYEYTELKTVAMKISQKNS
The experiment in a line: Validation of ALDH-mediated activation of AlDeLuc in heterotopic breast cancer model via DEAB inhibition. The experiment is classed as in vivo, BALB/c mice. Also on record: from tissue; host or cells: 4T1-Luc tumours in BALB/c mice. How it is done:
Validation of ALDH-mediated Activation of AlDeLuc in a Heterotopic Breast Cancer Model via DEAB Inhibition. BALB/c mice bearing 4T1-Luc tumors were anesthetized using isoflurane (1-3% for maintenance; up to 5% for induction) in oxygen from a precision vaporizer. After testing to ensure animals are fully under anesthesia, each mouse was administered AlDeLuc via retro-orbital injection (0.55 mg/kg, 1:19 v/v DMSO:PBS). Images were captured using the IVIS imaging system 40 minutes after injection. Bioluminescence light was captured in open mode (no filters were applied). ROIs were drawn around each tumor and summed for each animal. The signal intensity was quantified using the Living Image Analysis Software. After two days, the same animals were anesthetized and co-administered a solution of AlDeLuc and DEAB (0.55 mg/kg and 93 mg/kg respectively, 1:19 v/v DMSO:PBS). After the allotted 40 minutes, the images were captured using the IVIS imaging system. Bioluminescence was collected in open mode (no filters were applied). ROIS were drawn around each tumor and summed for each animal. The signal intensity was quantified using the Living Image Analysis Software.

For experiment [3], the target named is T1, ALDH1A1. The experiment in a line: DEAB inhibition of AlDeLuc activation in 4T1 cells. Conditions: DEAB 500 μM; AlDeLuc 100 μM; 4T1 lysates. Also on record: host or cells: 4T1 murine mammary carcinoma cells. The experiment is classed as cell-based, murine. How it is done:
Validation of ALDH-Mediated Activation of AlDeLuc in Murine Breast Cancer Cells. 4T1 cells were cultured in T75 culture flasks. After two days, cells had become ˜90% confluent. An aliquot of RPMI 1640 media (1 mL) was removed from each flask and replaced with either DEAB ([…], 0.5% DMSO) or vehicle (0.5% DMSO). After incubation for one hour, the solutions were aspirated, washed with PBS, and resuspended in fresh RPMI 1640 media (9 mL). Each flask was then incubated with the AlDeLuc (100 μM) and DEAB (500 μM) or AlDeLuc (100 μM) and vehicle (DMSO), each with a final concentration of 1% DMSO. After 60 minutes, this solution was aspirated, washed with fresh PBS, and detached from the culture flasks. The cells were then transferred to a 15 mL centrifuge tube and pelleted at 1000 rpm for 5 minutes at room temp. The cells were resuspended in PBS along with 10% protease inhibitor solution (1 protease inhibitor mini tablet per 10 mL of PBS, Pierce, Thermo Fisher Scientific) and sonicated on ice for 2.5 minutes (pulse 01, 01, 40%). The cell debris was removed via centrifugation and the supernatant was plated ([…]) into a 96-well plate (n=4 for each condition). […] ROIs were drawn around each well and the signal intensity was quantified using the Living Image Analysis software.

Experiment [4] deals with ALDH1A1 activity in 4T1 cells. The experiment in a line: Effect of nitric oxide (DETA NONOate) on ALDH1A1 activity in 4T1 cells using AlDeLuc. Conditions: DETA NONOate 50 μM, 2-day treatment; AlDeLuc 2 μM. The experiment is classed as cell-based, murine. How it is done:
Exploring the Effect of Nitric Oxide on ALDH1A1 activity in 4T1 Cells Using AlDeLuc. 4T1 cells were cultured in T75 flasks, and once they reached ˜30% confluency (1 day), the media was removed and replaced with fresh RPMI 1640 media supplemented with either DETA NONOate (50 μM) or vehicle (media). After 24 hours, the media was aspirated, and the cells were treated once more with RPMI 1640 media containing either DETA NONOate (50 μM) or vehicle (media). After […], the suspension was removed and cells were treated with AlDeLuc (2 μM, final concentration of 0.01% DMSO). After 60 minutes the AlDeLuc solution was aspirated, washed with fresh PBS, and detached from the culture flasks. The cells were then transferred to a 15 mL centrifuge tube and pelleted at 1000 rpm for 5 minutes at room temp. The cells were resuspended in PBS along with 10% protease inhibitor solution (1 protease inhibitor mini tablet per 10 mL of PBS, Pierce, Thermo Fisher Scientific) and sonicated on ice for 2.5 minutes (pulse 01, 01, 40%). The cell debris was removed via centrifugation and the supernatant was plated (95 μL/well) into a 96-well plate (n=4 for each condition). Each well was treated with luciferase (5 μL, 1 mg/mL) and immediately imaged using the IVIS imaging system in open mode. ROIs were drawn around each well and the signal intensity was quantified using the Living Image Analysis software.

A further experiment concerns ALDH1A1 activity. The experiment in a line: High-fat diet inflammatory model, orthotopic 4T1-Luc tumors, AlDeLuc imaging after L-NMMA. The experiment is classed as in vivo, BALB/c mice. The following applies: L-NMMA 50 mg/kg oral gavage 20 days, AlDeLuc 0.55 mg/kg. As for the experimental part: (§1) Finally, to examine how NO influences ALDH1A1 activity in vivo we placed BALB/c mice (female, 5-7 weeks old) on a high-fat diet for 40 weeks to induce an inflammatory response through elevated NO production. This period consists of a ˜20-week priming period prior to inoculation of the animals with 4T1-Luc cells at the mammary fat pad. At this point, the mice were randomized into two groups. The treatment group was administered L-NMMA (50 mg/kg), whereas the control group received water via oral gavage for 20 days. The day after the final treatment, mice from both conditions were treated systemically with AlDeLuc, and the bioluminescence was monitored (FIG. 5e). […] At the completion of the diet study, animals were sacrificed, and their tumors were excised for further immunohistochemical analysis.
Generation of an Orthotopic 4T1-Luc Breast Cancer Model for Diet Studies. Female BALB/c mice (˜6 weeks old) were inoculated with 4T1-Luc cells (50 μL of 1×10^5 cells in 1:1 v/v serum-free RPMI 1640 media and Matrigel) via subcutaneous injections into the mammary fat pad. Tumor volumes were measured using the caliper method every three days. Body weight was measured daily over the course of the experiment.

The test system of experiment [5] is ALDH1A1 activity in 4T1 cells. The experiment is described as follows: Influence of L-NMMA on ALDH1A1 activity in 4T1 cells using AlDeLuc. The experiment is classed as cell-based, murine. The following applies: L-NMMA 1 mM; AlDeLuc 50 μM.
Description: Influence of L-NMMA on ALDH1A1 activity in 4T1 Cells Using AlDeLuc. 4T1 cells were cultured in T75 culture flasks. After two days, cells had become ˜90% confluent. The media was aspirated and 9 mL of fresh media was added. The flasks were then treated with L-NMMA (1 mM, cell culture water) or vehicle (cell culture water). After incubation for 60 minutes, the solutions were aspirated, washed with PBS, and resuspended in fresh RPMI 1640 media (9 mL). AlDeLuc was added to each flask (50 M, 5% v/v DMSO:PBS) for a final concentration of 0.5% DMSO per flask. After 60 minutes this solution was aspirated, washed with fresh PBS, and detached from the culture flasks. The cells were then transferred to a 15 mL centrifuge tube and pelleted at 1000 rpm for 5 minutes at room temp. The cells were resuspended in PBS along with 10% protease inhibitor solution (1 protease inhibitor mini tablet per 10 mL of PBS, Pierce, Thermo Fisher Scientific) and sonicated on ice for 2.5 minutes (pulse 01, 01, 40%). The cell debris was removed via centrifugation and the supernatant was plated (95 L/well) into a 96-well plate (n=4 for each condition). Each well was treated with luciferase (5 μL, 1 mg/mL) and immediately imaged using the IVIS imaging system in open mode. ROIs were drawn around each well and the signal intensity was quantified using the Living Image Analysis software.
Experiment [6] deals with ALDH1A1. The experiment in a line: Immunohistochemical analysis of excised 4T1-Luc tumors. The experiment is classed as in vivo, BALB/c mice. Conditions: L-NMMA 50 mg/kg versus vehicle; high-fat diet; opposite to reduced iNOS. How it is done: as §1
The test system of another experiment is iNOS. Described as above. The experiment is classed as in vivo, BALB/c mice. Conditions: L-NMMA 50 mg/kg versus vehicle; high-fat diet.
Description: as §1, with “Diet-Induced Inflammation Modulates ALDH1A1 Activity in a Murine Model of Breast Cancer. Finally,” for “Finally,”, “analysis. Specifically, we determined that iNOS expression in tumors treated with L-NMMA was reduced. […] That is, reducing the levels of NO has the effect of increasing ALDH1A1 activity (as determined with AlDeLuc), as well as overall protein expression levels (FIG. 5h).” for “analysis.”

In experiment [7] the test system is ALDH1A1 activity in 4T1 cells. The experiment is described as follows: Influence of interferon-gamma on ALDH1A1 activity in 4T1 cells using AlDeLuc. The experiment is classed as cell-based, murine. Conditions: INF-γ 26.8 ng/mL, 12 hours; AlDeLuc 50 μM. As for the experimental part:
Influence of Interferon-gamma (INF-γ) on ALDH1A1 activity in 4T1 Cells Using AlDeLuc. 4T1 cells were cultured in T75 culture flasks. After two days, cells had become ˜90% confluent. An aliquot of RPMI 1640 was removed (26.8 μL) and the flasks were then treated with INF-γ (26.8 μL of […] stock in PBS, 26.8 ng/mL final conc.) or vehicle (26.8 μL PBS). After 12 hours, the solutions were aspirated, washed with PBS, and resuspended in fresh RPMI 1640 media (9 mL). AlDeLuc was added to each flask ([…], 5% v/v DMSO:PBS) for a final concentration of 0.5% DMSO per flask. After 60 minutes this solution was aspirated, washed with fresh PBS, and detached from the culture flasks. The cells were then transferred to a 15 mL centrifuge tube and pelleted at 1000 rpm for 5 minutes at room temp. The cells were resuspended in PBS along with 10% protease inhibitor solution (1 protease inhibitor mini tablet per 10 mL of PBS, Pierce, Thermo Fisher Scientific) and sonicated on ice for 2.5 minutes (pulse 01, 01, 40%). The cell debris was removed via centrifugation and the supernatant was plated (95 μL/well) into a 96-well plate (n=4 for each condition). Each well was treated with luciferase (5 μL, 1 mg/mL) and immediately imaged using the IVIS imaging system in open mode. ROIs were drawn around each well and the signal intensity was quantified using the Living Image Analysis software.

Take `CCN(CC)/[N+]([O-])=N/O.CCNCC` [DEA NONOate]: the “intracellular levels of NO” value in experiment [1] (DEA NONOate 50 μM) is recorded as “increasing”.
Regarding `CCN(CC)c1ccc(C=O)cc1` [DEAB, diethylaminobenzaldehyde], the “difference in total luminescent counts, AlDeLuc alone versus DEAB co-treated” value at ALDH1A1 [2] (DEAB 93 mg/kg, AlDeLuc 0.55 mg/kg) came to 2.8 fold. At ALDH1A1 [2] (co-treated DEAB 93 mg/kg and AlDeLuc 0.55 mg/kg, 40 min), the total luminescent counts is 0.78±0.28×10^4. In addition, the “diminished bioluminescent signal relative to uninhibited cells” value on ALDH1A1 [3] was “approximately 5 fold”.
Regarding `NCCN(CCN)/[N+]([O-])=N/O` [DETA NONOate], the bioluminescence decreased in experiment [4] is on record as 1.3 fold.
Regarding `CNC(=N)NCCC[C@H](N)C(=O)O` [L-NMMA], the “intracellular levels of NO” value in [1] (L-NMMA 1 mM) is recorded as “decreasing”. In the experiment on ALDH1A1 activity, the “enhancement in total luminescent counts compared to control group” value came to 5.9 fold. In addition, the total luminescent counts with ALDH1A1 activity (40 min) was 9.9±2.7×10^4. Moreover, the “bioluminescence higher compared to vehicle-treated cells” value in [5] stood at 2.4 fold. In addition, the “ALDH1A1 expression in tumors” value with ALDH1A1 [6] is reported as “opposite trend”. Also, the “iNOS expression in tumors” value in the experiment on iNOS is “reduced”.
As for “IFN-γ: interferon gamma, shown to stimulate NO production via inducible nitric oxide synthase”, in [7], the “bioluminescence signal lower relative to vehicle-treated control cells” value is on record as 3.2 fold.
